Usually Ki stands for a measure of affinity in units of concentration, obtained from inhibition or displacement.

The target of this experiment is human IRAK4 (Homo sapiens (Human), UniProt Q9NWZ3). In words: IRAK4 kinase inhibition, Transcreener fluorescence polarization (ADP detection). It counts as biochemical. As to conditions: recombinant full-length His6-IRAK4; 1.25 nM IRAK4; 125 μM ATP; 90 min; ATP Km 642 μM. The protocol: Compounds were assayed for inhibition of human IRAK4 and IRAK1 catalytic activity using recombinant enzyme produced from insect cells. Full-length IRAK4 protein, carrying an N-terminal His6-Tag, was obtained from Life Technologies (Carlsbad, Calif., USA). The IRAK1 construct was produced internally and was comprised of IRAK1 residues Arg194 to Ser712, preceded by an NH2-terminal His6 tag and the coding sequence for glutathione-S-transferase.
Chain of human IRAK4 (Q9NWZ3 whole entry, the tested form may be a part): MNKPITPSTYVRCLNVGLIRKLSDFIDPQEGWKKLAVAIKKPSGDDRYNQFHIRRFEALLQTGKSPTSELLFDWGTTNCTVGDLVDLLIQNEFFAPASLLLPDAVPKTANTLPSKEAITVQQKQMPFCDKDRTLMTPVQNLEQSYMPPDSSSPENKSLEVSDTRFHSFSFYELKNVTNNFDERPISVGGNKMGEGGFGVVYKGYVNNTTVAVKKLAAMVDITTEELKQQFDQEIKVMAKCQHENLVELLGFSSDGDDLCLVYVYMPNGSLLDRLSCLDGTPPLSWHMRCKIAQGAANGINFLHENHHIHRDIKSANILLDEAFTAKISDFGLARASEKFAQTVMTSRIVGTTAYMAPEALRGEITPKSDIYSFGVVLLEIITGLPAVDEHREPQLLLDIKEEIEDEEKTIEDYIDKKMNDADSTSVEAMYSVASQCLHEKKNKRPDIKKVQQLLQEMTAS
Kinase activities were assayed using the Transcreener-Fluorecescence polarization platform (BelBrook Labs, Madison, Wis., USA) that measures amounts of the reaction product, ADP.
384 well assay plates spotted with compound received 4 μl of a 2× substrate (ATP+peptide) mix in reaction buffer, followed by 4 μl of 2× enzyme diluted in reaction buffer.
On the technique in general: In fluorescence polarisation assays a small probe gives low polarisation when free and higher when bound to something large.
Regarding `Cn1ccc(C(=O)Nc2cc3c(cc2N2CCOCC2)O[C@](C)(CO)C3)n1` (single isomer, unassigned) [Example 16], the inhibition constant Ki amounted to 48 nM.

Consider `Cn1ccc(C(=O)Nc2cc3c(cc2N2CCOCC2)O[C@@](C)(CO)C3)n1` (single isomer, unassigned) [Example 17], for which the inhibition constant (Ki) was 120 nM.

`C[C@@]1(CO)Cc2cc(NC(=O)c3ccc4cccnn34)c(N3CCOCC3)cc2O1` (single isomer, unassigned) [Example 18]: the inhibitory constant (Ki) was 3.4 nM.

Regarding `C[C@]1(CO)Cc2cc(NC(=O)c3ccc4cccnn34)c(N3CCOCC3)cc2O1` (single isomer, unassigned) [Example 19], the inhibition constant Ki turned out to be 21 nM.

As for `C[C@@]1(CO)Cc2cc(NC(=O)c3ccc4cncnn34)c(N3CCOCC3)cc2O1` (single isomer, unassigned) [Example 23], the Ki is 3.6 nM.

In the case of `C[C@]1(CO)Cc2cc(NC(=O)c3ccc4cncnn34)c(N3CCOCC3)cc2O1` (single isomer, unassigned) [Example 24], the Ki worked out at 7.7 nM.

On to `Cn1nnc2c(C(=O)Nc3cc4c(cc3N3CCOCC3)O[C@@](C)(CO)C4)cncc21` (single isomer, unassigned) [Example 67], for which the inhibition constant (Ki) was found to be 180 nM.

Turning to `Cn1nnc2c(C(=O)Nc3cc4c(cc3N3CCOCC3)O[C@](C)(CO)C4)cncc21` (single isomer, unassigned) [Example 68], the Ki worked out at 70 nM.

`C[C@]1(CO)Cc2cc(NC(=O)c3csc4cc(Cl)cnc34)c(N3CCOCC3)cc2O1` (stereo in doubt) [Example 56, (R)-6-Chloro-N-(2-(hydroxymethyl)-2-methyl-6-morpholino-2,3-dihydrobenzofuran-5-yl)thieno[3,2-b]pyridine-3-carboxamide]: the Ki amounted to 37 nM.

For `C[C@@]1(CO)Cc2cc(NC(=O)c3csc4cc(Cl)cnc34)c(N3CCOCC3)cc2O1` (stereo in doubt) [Example 57, (S)-6-Chloro-N-(2-(hydroxymethyl)-2-methyl-6-morpholino-2,3-dihydrobenzofuran-5-yl)thieno[3,2-b]pyridine-3-carboxamide], the Ki came to 19 nM.

Regarding `CC1(C)Cc2cc(NC(=O)c3cnn4c3OCCC4)c(N3CCOCC3)cc2O1` [Example 1, N-(2,2-Dimethyl-6-morpholino-2,3-dihydrobenzofuran-5-yl)-6,7-dihydro-5H-pyrazolo[5,1-b][1,3]oxazine-3-carboxamide], the inhibition constant Ki stood at 67 nM.

Turning to `CC1(C)Cc2cc(NC(=O)c3ccc(O)nn3)c(N3CCOCC3)cc2O1` [Example 2, N-(2,2-Dimethyl-6-morpholino-2,3-dihydrobenzofuran-5-yl)-6-hydroxypyridazine-3-carboxamide], the inhibitory constant (Ki) stood at 30 nM.

As to `CC1(C)Cc2cc(NC(=O)c3csc4c(N)ncnc34)c(N3CCOCC3)cc2O1` [Example 3, 4-Amino-N-(2,2-dimethyl-6-morpholino-2,3-dihydrobenzofuran-5-yl)thieno[3,2-d]pyrimidine-7-carboxamide], the inhibition constant Ki is 13 nM.

Turning to `CC1(C)Cc2cc(NC(=O)c3cccc4[nH]nnc34)c(N3CCOCC3)cc2O1` [Example 4, N-(2,2-Dimethyl-6-morpholino-2,3-dihydrobenzofuran-5-yl)-1H-benzo[d][1,2,3]triazole-4-carboxamide], the Ki came out at 7.1 nM.

Regarding `Cc1nc(C(=O)Nc2cc3c(cc2N2CCOCC2)OC(C)(C)C3)ccc1C#N` [Example 5, 5-Cyano-N-(2,2-dimethyl-6-morpholino-2,3-dihydrobenzofuran-5-yl)-6-methylpicolinamide], the Ki is 25 nM.

In the case of `Cc1nc(C(=O)Nc2cc3c(cc2N2CCOCC2)OC(C)(C)C3)cs1` [Example 6, N-(2,2-Dimethyl-6-morpholino-2,3-dihydrobenzofuran-5-yl)-2-methylthiazole-4-carboxamide], the Ki was 38 nM.

For the molecule `Cc1cncc(C(=O)Nc2cc3c(cc2N2CCOCC2)OC(C)(C)C3)n1` [Example 7, N-(2,2-Dimethyl-6-morpholino-2,3-dihydrobenzofuran-5-yl)-6-methylpyrazine-2-carboxamide], the Ki came out at 43 nM.

Take `CC1(C)Cc2cc(NC(=O)c3cccc(F)n3)c(N3CCOCC3)cc2O1` [Example 8, N-(2,2-Dimethyl-6-morpholino-2,3-dihydrobenzofuran-5-yl)-6-fluoropicolinamide]: the inhibition constant Ki turned out to be 45 nM.

Turning to `CC1(C)Cc2cc(NC(=O)c3ccnc(S(C)(=O)=O)n3)c(N3CCOCC3)cc2O1` [Example 9, N-(2,2-Dimethyl-6-morpholino-2,3-dihydrobenzofuran-5-yl)-2-(methylsulfonyl)pyrimidine-4-carboxamide], the inhibition constant (Ki) was 530 nM.

As for `CC1(C)Cc2cc(NC(=O)c3cc4ccncc4o3)c(N3CCOCC3)cc2O1` [Example 10, N-(2,2-Dimethyl-6-morpholino-2,3-dihydrobenzofuran-5-yl)furo[2,3-c]pyridine-2-carboxamide], the inhibitory constant (Ki) is 27 nM.

For `CC1(C)Cc2cc(NC(=O)c3cnccn3)c(N3CCOCC3)cc2O1` [Example 11, N-(2,2-Dimethyl-6-morpholino-2,3-dihydrobenzofuran-5-yl)pyrazine-2-carboxamide], the Ki stood at 290 nM.

Turning to `CC1(C)Cc2cc(NC(=O)c3ccc[nH]c3=O)c(N3CCOCC3)cc2O1` [Example 12, N-(2,2-Dimethyl-6-morpholino-2,3-dihydrobenzofuran-5-yl)-2-oxo-1,2-dihydropyridine-3-carboxamide], the inhibition constant (Ki) is 77 nM.

Consider `Cc1cnc(C(=O)Nc2cc3c(cc2N2CCOCC2)OC(C)(C)C3)cn1` [Example 13, N-(2,2-Dimethyl-6-morpholino-2,3-dihydrobenzofuran-5-yl)-5-methylpyrazine-2-carboxamide], for which the inhibition constant Ki was found to be 280 nM.

On to `CC1(C)Cc2cc(NC(=O)c3cnsn3)c(N3CCOCC3)cc2O1` [Example 14, N-(2,2-Dimethyl-6-morpholino-2,3-dihydrobenzofuran-5-yl)-1,2,5-thiadiazole-3-carboxamide], for which the Ki was 340 nM.

Turning to `CC1(C)Cc2cc(NC(=O)c3cnc4cccnn34)c(N3CCOCC3)cc2O1` [Example 15, N-(2,2-Dimethyl-6-morpholino-2,3-dihydrobenzofuran-5-yl)imidazo[1,2-b]pyridazine-3-carboxamide], the Ki turned out to be 36 nM.

Turning to `CC1(C)Cc2cc(NC(=O)c3cccc4[nH]cnc34)c(N3CCOCC3)cc2O1` [Example 20, N-(2,2-Dimethyl-6-morpholino-2,3-dihydrobenzofuran-5-yl)-1H-benzo[d]imidazole-4-carboxamide], the Ki is 30 nM.

Consider `CC1(C)Cc2cc(NC(=O)c3cncc4[nH]cnc34)c(N3CCOCC3)cc2O1` [Example 21, N-(2,2-Dimethyl-6-morpholino-2,3-dihydrobenzofuran-5-yl)-3H-imidazo[4,5-c]pyridine-7-carboxamide], for which the inhibition constant Ki came out at 280 nM.

In the case of `CC1(C)Cc2cc(NC(=O)c3cccc(C(F)(F)F)n3)c(N3CCOCC3)cc2O1` [Example 22, N-(2,2-Dimethyl-6-morpholino-2,3-dihydrobenzofuran-5-yl)-6-(trifluoromethyl)picolinamide], the inhibition constant Ki is 25 nM.

As for `Cc1nc2c(C(=O)Nc3cc4c(cc3N3CCOCC3)OC(C)(C)C4)cncc2[nH]1` [Example 25, N-(2,2-Dimethyl-6-morpholino-2,3-dihydrobenzofuran-5-yl)-2-methyl-3H-imidazo[4,5-c]pyridine-7-carboxamide], the inhibition constant Ki was found to be 35 nM.

These data come from US10899774B2, “IRAK4 modulators” (Genentech, Inc., priority 2017, dated 2021).
